The term IC50 denotes the concentration that inhibits the measured activity by half.

Where a SMILES comes first, the peptide text is derived from it. [ ]: non-standard residue; d: D form. Trp(7-aza) = N[C@@H](Cc1c[nH]c2ncccc12)C(=O)O; NMePhe(4-F) = CN[C@@H](Cc1ccc(F)cc1)C(=O)O; Phg = N[C@H](C(=O)O)c1ccccc1; Tle = CC(C)(C)[C@H](N)C(=O)O; NMeA = CN[C@@H](C)C(=O)O; Pra = C#CC[C@H](N)C(=O)O; Ahx = NCCCCCC(=O)O; Sar = CNCC(=O)O

Our source for the IC50 values is US10954287B2, “Ras binding peptides and methods of use” (Ra Pharmaceuticals, Inc., priority 2016, dated 2021).

The subject of this assay is GMPPNP-loaded H-Ras or GTP-loaded K-Ras. Nature of the assay: Fluorescence polarization competition assay with TAMRA-labeled probe R4007. It counts as binding, human. The note with it: 120 nM Ras, 30 nM probe R4007, 60 minutes at room temperature; read-out: Probe displacement (nM IC50). As for the experimental part:
R4000 was evaluated for competition with a TAMRA labeled probe (R4007) based on peptide R4000. The assay was performed in 384-well black, non-binding plates (Greiner Bio-One, Monroe, N.C.). GMPPNP-loaded H-Ras or GTP-loaded K-Ras, diluted in FP assay buffer (20 mM Tris-HCl, pH 7.5, 50 mM NaCl, 5 mM MgCl2, 1 mM EDTA, 0.002% Triton-X-100) for a final concentration of 120 nM was incubated with 30 nM R4007 for 20 minutes at room temperature. R4000 was serially diluted, added to the assay and incubated for 60 minutes at room temperature. Fluorescence polarization was detected with a SpectraMax Paradigm plate reader (Molecular Devices, Sunnyvale, Calif.) using the Rhodamine FP detection cartridge (535 nm/595 nm). Data was analyzed using GraphPad Prism and Ki determined using One Site Ki Curve fitting model.
Peptides were evaluated for competition with R4007, a probe consisting of TAMRA-labeled R4000, using a fluorescence polarization (FP) competition assay. The assay was performed in 384-well black, non-binding plates (Greiner Bio-One, Monroe, N.C.). GMPPNP-loaded H-Ras or GTP- loaded K-Ras, diluted in FP assay buffer (20 mM Tris-HCl, pH 7.5, 50 mM NaCl, 5 mM MgCl2, 1 mM EDTA, 0.002% Triton-X-100) for a final concentration of 120 nM was incubated with 30 nM probe for 20 minutes at room temperature. Peptides were serially diluted, added to the assay and incubated for 60 minutes at room temperature. Fluorescence was detected with a SpectraMax Paradigm plate reader (Molecular Devices, Sunnyvale, Calif.) using the Rhodamine FP detection cartridge (535 nm/595 nm). Data was analyzed and Ki determined using a One Site Ki Curve fitting model. Percent inhibition for each data point was calculated relative to the maximal binding in test compound-free control wells (showing no probe displacement) and Ras-free control wells (showing no probe binding) and the half-maximal inhibitory concentration (IC50), based on probe displacement, was determined.
For `C#CC[C@@H]1NC(=O)CN(C)C(=O)[C@H](Cc2ccc(F)cc2)N(C)C(=O)[C@H](Cc2ccc(O)cc2)NC(=O)[C@H](Cc2c[nH]c3ncccc23)NC(=O)[C@H](c2ccccc2)NC(=O)[C@H](C)N(C)C(=O)[C@H](Cc2c[nH]cn2)NC(=O)[C@H](CCCCN)NC(=O)[C@H](C(C)(C)C)NC(=O)[C@H](Cc2ccc(O)cc2)NC(=O)CCCCCNC1=O` [Compound R4137, AHX*-TYR-TBG-LYS-HIS-NMA-PHG-7AW-TYR-MFF-SAR-PRG*] (cyclo([Ahx]Y[Tle]KH[NMeA][Phg][Trp(7-aza)]Y[NMePhe(4-F)][Sar][Pra])), the IC50 was determined as 411 nM.
Next, `C=CC(=O)NCC[C@@H]1NC(=O)[C@H](C)NC(=O)[C@H](C(C)(C)C)NC(=O)[C@H](Cc2ccc(O)cc2)NC(=O)[C@@H](NC(=O)[C@H](CCC)NC(C)=O)CSCc2cccc(c2)CSC[C@@H](C(N)=O)NC(=O)CN(C)C(=O)[C@H](Cc2ccc(F)cc2)N(C)C(=O)[C@H](Cc2ccc(O)cc2)NC(=O)[C@H](Cc2c[nH]c3ncccc23)NC(=O)[C@H](c2ccccc2)NC(=O)[C@H](C)N(C)C1=O` (relative stereo) [Compound R4146, ACE-NVA-CYS*-TYR-TBG-ALA-DABAC1-NMA-PHG-7AW-TYR-MFF-SAR-CYS*-NH2]: 3390 nM; `CC(=O)N[C@H]1CSCc2cccc(c2)CSC[C@@H](C(N)=O)NC(=O)CN(C)C(=O)[C@H](Cc2ccc(F)cc2)N(C)C(=O)[C@H](Cc2ccc(O)cc2)NC(=O)[C@H](Cc2c[nH]c3ncccc23)NC(=O)[C@H](c2ccccc2)NC(=O)[C@H](C)N(C)C(=O)[C@H](Cc2c[nH]cn2)NC(=O)[C@H](CCCCN)NC(=O)[C@H](C(C)(C)C)NC(=O)[C@H](Cc2ccc(O)cc2)NC1=O` (relative stereo) [Compound R4112, ACE-CYS*-TYR-TBG-LYS-HIS-NMA-PHG-7AW-TYR-MFF-SAR-CYS*-NH2]: 21.4 nM; `CCC[C@H](NC(C)=O)C(=O)N[C@H]1CSCc2cccc(c2)CSC[C@@H](C(N)=O)NC(=O)[C@H](C)N(C)C(=O)[C@H](Cc2ccc(F)cc2)N(C)C(=O)[C@H](Cc2ccc(O)cc2)NC(=O)[C@H](Cc2c[nH]c3ncccc23)NC(=O)[C@H](c2ccccc2)NC(=O)[C@H](C)N(C)C(=O)[C@H](Cc2c[nH]cn2)NC(=O)[C@H](CCCCN)NC(=O)[C@H](C(C)(C)C)NC(=O)[C@H](Cc2ccc(O)cc2)NC1=O` (relative stereo) [Compound R4101, ACE-NVA-CYS*-TYR-TBG-LYS-HIS-NMA-PHG-7AW-TYR-MFF-NMA-CYS*-NH2]: 1.45 nM.
Next, `CCC[C@H](NC(C)=O)C(=O)N[C@H]1CSCc2cccc(c2)CSC[C@@H](C(N)=O)NC(=O)CN(C)C(=O)[C@H](Cc2ccc(F)cc2)N(C)C(=O)[C@H](Cc2ccc(O)cc2)NC(=O)[C@H](Cc2c[nH]c3ncccc23)NC(=O)[C@H](c2ccccc2)NC(=O)[C@H](CO)N(C)C(=O)[C@H](Cc2c[nH]cn2)NC(=O)[C@H](CCCCN)NC(=O)[C@H](C(C)(C)C)NC(=O)[C@H](Cc2ccc(O)cc2)NC1=O` (relative stereo) [Compound R4132, ACE-NVA-CYS*-TYR-TBG-LYS-HIS-NMS-PHG-SA7AW-TYR-MFF-R-CYS*-NH2]: 281 nM.
Next, `CCC[C@H](N)C(=O)N[C@H]1CSCc2cccc(c2)CSC[C@@H](C(=O)N[C@H](CO)C(=O)N[C@@H](CCCCN)C(=O)NCC(=O)N[C@@H](CS)C(=O)N[C@H](C(=O)N[C@H](C(=O)N[C@@H](CCSC)C(=O)O)[C@@H](C)CC)C(C)C)NC(=O)CN(C)C(=O)[C@H](Cc2ccc(F)cc2)N(C)C(=O)[C@H](Cc2ccc(O)cc2)NC(=O)[C@H](Cc2c[nH]c3ncccc23)NC(=O)[C@H](c2ccccc2)NC(=O)[C@H](C)N(C)C(=O)[C@H](Cc2c[nH]cn2)NC(=O)[C@H](CCCCN)NC(=O)[C@H](C(C)(C)C)NC(=O)[C@H](Cc2ccc(O)cc2)NC1=O` (relative stereo) [Compound R4114, NVA-CYS*-TYR-TBG-LYS-HIS-NMA-PHG-7AW-TYR-MFF-SAR-CYS*-DSER-LYS-GLY-CYS-VAL-ILE-MET]: 32.7 nM; `CCC[C@H](NC(C)=O)C(=O)N[C@H]1CSCc2cccc(c2)CSC[C@@H](C(N)=O)NC(=O)CN(C)C(=O)[C@H](Cc2ccc(F)cc2)N(C)C(=O)[C@H](Cc2ccc(O)cc2)NC(=O)[C@H](Cc2c[nH]c3ncccc23)NC(=O)[C@H](C2CCCCC2)NC(=O)[C@H](C)N(C)C(=O)[C@H](Cc2c[nH]cn2)NC(=O)[C@H](CCCCN)NC(=O)[C@H](C(C)(C)C)NC(=O)[C@H](Cc2ccc(O)cc2)NC1=O` (relative stereo) [Compound R4149, ACE-NVA-CYS*-TYR-TBG-LYS-HIS-NMA-CHG-7AW-TYR-MFF-SAR-CYS*-NH2]: 6260 nM.
Consider `CCC[C@H](NC(C)=O)C(=O)N[C@H]1CSCc2cccc(c2)CSC[C@@H](C(N)=O)NC(=O)CN(C)C(=O)[C@H](Cc2ccc(F)cc2)N(C)C(=O)[C@H](Cc2ccc(O)cc2)NC(=O)[C@H](Cc2c[nH]c3ncccc23)NC(=O)[C@H](c2ccccc2)NC(=O)[C@H](C)N(C)C(=O)[C@H]2CCCN2C(=O)[C@H](CCCCN)NC(=O)[C@H](C(C)(C)C)NC(=O)[C@H](Cc2ccc(O)cc2)NC1=O` (relative stereo) [Compound R4144, ACE-NVA-CYS*-TYR-TBG-LYS-DPRO-NMA-PHG-7AW-TYR-MFF-SAR-CYS*-NH2], for which the IC50 is 1960 nM.
The value for `CCC[C@H](N)C(=O)N[C@H]1CSCc2cccc(c2)CSC[C@@H](C(=O)N[C@H](CO)C(=O)N[C@@H](CCCCN)C(=O)NCC(=O)N[C@@H](CSSC(C)(C)C)C(=O)N[C@H](C(=O)N[C@H](C(=O)N[C@@H](CCSC)C(=O)O)[C@@H](C)CC)C(C)C)NC(=O)CN(C)C(=O)[C@H](Cc2ccc(F)cc2)N(C)C(=O)[C@H](Cc2ccc(O)cc2)NC(=O)[C@H](Cc2c[nH]c3ncccc23)NC(=O)[C@H](c2ccccc2)NC(=O)[C@H](C)N(C)C(=O)[C@H](Cc2c[nH]cn2)NC(=O)[C@H](CCCCN)NC(=O)[C@H](C(C)(C)C)NC(=O)[C@H](Cc2ccc(O)cc2)NC1=O` (relative stereo) [Compound R4113, NVA-CYS*-TYR-TBG-LYS-HIS-NMA-PHG-7AW-TYR-MFF-SAR-CYS*-DSER-LYS-GLY-TDSPA-VAL-ILE-MET] was 32.7 nM.
As to `CCC[C@H](N)C(=O)N[C@H]1CSCc2cccc(c2)CSC[C@@H](C(N)=O)NC(=O)CN(C)C(=O)[C@H](Cc2ccc(F)cc2)N(C)C(=O)[C@H](Cc2ccc(O)cc2)NC(=O)[C@H](Cc2c[nH]c3ncccc23)NC(=O)[C@H](c2ccccc2)NC(=O)[C@H](C)N(C)C(=O)[C@H](Cc2cnc[nH]2)NC(=O)[C@H](CCCCN)NC(=O)[C@H](C(C)(C)C)NC(=O)[C@H](Cc2ccc(O)cc2)NC1=O` (relative stereo) [Compound R4002, NVA-CYS*-TYR-TBG-LYS-HIS-NMA-PHG-7AW-TYR-MFF-SAR-CYS*-NH2], the IC50 came to 7.92 nM.
The value for `CCC[C@H](NC(C)=O)C(=O)N[C@H]1CSCc2cccc(c2)CSC[C@@H](C(=O)NCC(=O)N[C@@H](CS)C(=O)NCC(=O)N[C@H](C(=O)NCC(=O)N[C@H](C(=O)N[C@@H](CCSC)C(=O)O)[C@@H](C)CC)C(C)C)NC(=O)CN(C)C(=O)[C@H](Cc2ccc(F)cc2)N(C)C(=O)[C@H](Cc2ccc(O)cc2)NC(=O)[C@H](Cc2c[nH]c3ncccc23)NC(=O)[C@H](c2ccccc2)NC(=O)[C@H](C)N(C)C(=O)[C@H](Cc2c[nH]cn2)NC(=O)[C@H](CCCCN)NC(=O)[C@H](C(C)(C)C)NC(=O)[C@H](Cc2ccc(O)cc2)NC1=O` (relative stereo) [Compound R4119, ACE-NVA-CYS*-TYR-TBG-LYS-HIS-NMA-PHG-7AW-TYR-MFF-SAR-CYS*-GLY-CYS-GLY-VAL-GLY-ILE-MET] was 64.4 nM.
Next, `C=CC(=O)NCCC[C@@H]1NC(=O)[C@H](C)NC(=O)[C@H](C(C)(C)C)NC(=O)[C@H](Cc2ccc(O)cc2)NC(=O)[C@@H](NC(=O)[C@H](CCC)NC(C)=O)CSCc2cccc(c2)CSC[C@@H](C(N)=O)NC(=O)CN(C)C(=O)[C@H](Cc2ccc(F)cc2)N(C)C(=O)[C@H](Cc2ccc(O)cc2)NC(=O)[C@H](Cc2c[nH]c3ncccc23)NC(=O)[C@H](c2ccccc2)NC(=O)[C@H](C)N(C)C1=O` (relative stereo) [Compound R4122, ACE-NVA-CYS*-TYR-TBG-ALA-ORAC-NMA-PHG-7AW-TYR-MFF-SAR-CYS*-NH2]: 77.1 nM; `CCC[C@H](NC(C)=O)C(=O)N[C@H]1CSCc2cccc(c2)CSC[C@@H](C(=O)O)NC(=O)CN(C)C(=O)[C@H](Cc2ccc(F)cc2)N(C)C(=O)[C@H](Cc2ccc(O)cc2)NC(=O)[C@H](Cc2c[nH]c3ncccc23)NC(=O)[C@H](c2ccccc2)NC(=O)[C@H](C)N(C)C(=O)[C@H](Cc2c[nH]cn2)NC(=O)[C@H](CCCCN)NC(=O)[C@H](C(C)(C)C)NC(=O)[C@H](Cc2ccc(O)cc2)NC1=O` (relative stereo) [Compound R4108, ACE-NVA-CYS*-TYR-TBG-LYS-HIS-NMA-PHG-7AW-TYR-MFF-SAR-CYS*]: 9.45 nM.
